This note sets out measurements from patent publication US5597848A, “Benzenesulfonamide derivatives and use thereof” (Hokuriku Seiyaku Co., Ltd., priority 1992, dated 1997).

Assay [1] has as its target T1, thromboxane A2 receptor (Cavia porcellus, UniProt A0A286Y4I8).
T1 construct: platelet-rich plasma; endogenous in cells; host or cells: guinea-pig platelets in platelet-rich plasma
T1 sequence (A0A286Y4I8 1-347): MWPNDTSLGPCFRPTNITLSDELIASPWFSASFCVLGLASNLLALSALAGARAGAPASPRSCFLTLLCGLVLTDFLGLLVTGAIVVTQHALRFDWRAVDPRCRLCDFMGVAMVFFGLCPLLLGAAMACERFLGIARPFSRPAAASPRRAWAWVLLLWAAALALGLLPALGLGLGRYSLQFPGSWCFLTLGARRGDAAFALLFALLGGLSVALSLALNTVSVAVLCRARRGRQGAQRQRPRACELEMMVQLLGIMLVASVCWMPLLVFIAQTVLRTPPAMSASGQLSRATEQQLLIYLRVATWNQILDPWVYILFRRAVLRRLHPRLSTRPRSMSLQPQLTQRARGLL
The assay can be described thus: Thromboxane A2 antagonistic effect: inhibition of U-46619-induced platelet aggregation in guinea-pig platelet-rich plasma. The note with it: guinea-pig PRP, U-46619 2 μg/ml, 2 min at 37° C.; read-out: IC50 (50% inhibition against platelet aggregation). In kind it is cell-based, guinea-pigs. The method, then: Blood was collected from the abdominal aorta of guinea-pigs (about 400 g wt.) into 1/10 volume of 3.8% sodium citrate, and then platelet-rich plasma (PRP: 6×10^5 cells/μl) was obtained by centrifugation. A cuvette was filled with PRP 190 μl and set in an aggregometer (Hema Tracer I; Niko Bioscience). Incubation was carried out for 2 min. at 37° C. after the addition of 1 μl of dimethyl sulfoxide solution of test compounds. To the PRP, 10 μl of U-46619 (Cayman), a thromboxane A2 /prostaglandin H2 receptor agonist and potent platelet aggregation inducer, was added at the final concentration of 2 μg/ml, and platelet aggregation was measured by an aggregometer.

In assay [2] the target is T2, thromboxane A2 synthetase (Homo sapiens, UniProt P24557).
T2 construct: human platelet membrane fraction (RAN) as a source of thromboxane A2 synthetase; purchased RAN; host or cells: human platelet membrane fraction
T2 sequence (P24557 1-533): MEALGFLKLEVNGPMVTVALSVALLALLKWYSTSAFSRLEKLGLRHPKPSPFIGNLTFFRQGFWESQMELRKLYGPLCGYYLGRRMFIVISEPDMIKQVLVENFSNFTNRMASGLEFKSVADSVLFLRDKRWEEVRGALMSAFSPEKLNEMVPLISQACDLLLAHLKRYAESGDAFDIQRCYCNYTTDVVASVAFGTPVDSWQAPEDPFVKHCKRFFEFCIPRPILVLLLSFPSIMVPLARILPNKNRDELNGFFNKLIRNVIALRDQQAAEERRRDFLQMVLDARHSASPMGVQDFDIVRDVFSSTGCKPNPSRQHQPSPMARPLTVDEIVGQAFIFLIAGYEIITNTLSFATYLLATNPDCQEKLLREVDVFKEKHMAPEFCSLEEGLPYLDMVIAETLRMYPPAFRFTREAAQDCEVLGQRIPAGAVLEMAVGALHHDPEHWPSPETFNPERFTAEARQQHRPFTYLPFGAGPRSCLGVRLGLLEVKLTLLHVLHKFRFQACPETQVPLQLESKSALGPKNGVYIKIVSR
The assay can be described thus: Inhibitory effect on thromboxane A2 synthetase (human platelet membrane fraction, thromboxane B2 RIA). In kind it is biochemical. The note with it: 3 min at 25° C., read-out: IC50 (50% inhibition of the enzyme activity). The method, then: 100 μg/ml (285 μl) of the commercially available human platelet membrane fraction (RAN) as a source of thromboxane A2 synthetase, dimethyl sulfoxide solution of test compounds (10 μl) and 100 μg/ml (5 μl) of prostaglandin H2 (Cayman) were mixed and reaction was carried out for 3 min at 25° C. Amount of thromboxane B2, a stable metabolite derived from thromboxane A2 produced, was measured by RIA method (TXB2 quantification kit; NEN).

The target of assay [3] is T3, leukotriene D4 (Cavia porcellus, UniProt Q2NNR5).
T3 construct: tracheas were isolated from male Hartley guinea-pigs; from tissue; host or cells: isolated trachea of male Hartley guinea-pigs
T3 sequence (Q2NNR5 1-340): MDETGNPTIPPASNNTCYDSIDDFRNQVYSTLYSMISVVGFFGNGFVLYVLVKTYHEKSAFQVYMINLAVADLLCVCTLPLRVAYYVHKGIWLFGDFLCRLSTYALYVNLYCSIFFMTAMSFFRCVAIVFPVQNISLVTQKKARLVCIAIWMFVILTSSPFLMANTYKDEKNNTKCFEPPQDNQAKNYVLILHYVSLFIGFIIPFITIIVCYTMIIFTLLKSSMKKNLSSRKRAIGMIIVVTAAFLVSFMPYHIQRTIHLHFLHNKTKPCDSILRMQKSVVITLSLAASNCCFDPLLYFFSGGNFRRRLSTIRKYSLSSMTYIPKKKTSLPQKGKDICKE
In words: Leukotriene D4 antagonistic effect in isolated trachea (Schild method). Set-up: species or system male Hartley guinea-pigs. The note with it: for Kb: isolated trachea, 30 min treatment, indomethacin 3×10^-6 M, Krebs 37° C. The protocol:
According to an ordinary method, tracheas were isolated from male Hartley guinea-pigs, and ring specimens of approximately […] length were prepared. These specimens were suspended isotonically in organ baths that contained Krebs solution at 37° C. under a resting tension of 0.5 g. After repeated contractions with acetylcholine (1×10^-6 M; Ovisot for injection, Daiichi Seiyaku), and the first concentration-response curves was obtained by cummulative applications of leukotriene D4 (ULTRA FINE) into the organ baths. After treatments with test compounds at adequate concentrations for 30 min, the second concentration-response curves were obtained in the same manner as first applications. pKB values were calculated using these two concentration-response curves according to the method of Schild [Pharmacological Review, Vol. 9, 242 (1957)]. Indomethacin (3×10^-6 M; Sigma) was added beforehand to the organ bath to eliminate possible affections by thromboxane A2 and prostaglandin produced by stimulus of leukotriene D4 [Japan J. Pharmacol., Vol. 60, 227 (1992)].

The subject of assay [4] is broncho-constriction induced by U-46619. The assay can be described thus: Inhibitory effect on broncho-constriction induced by U-46619 (Konzett-Roessler method, oral). The note with it: 0.3 mg/kg orally, 2 hrs before U-46619 4 μg/kg. In kind it is in vivo, Male hartley guinea-pigs. The protocol:
Airway resistance was evaluated according to the method of Konzett-Roessler[Naunyn-Schmiedberg's Arch. Exp. Path. Pharmak., Vol. 195, 71 (1940)]. Male hartley guinea-pigs (about 400 g wt.) were anesthetized with urethane (1.5 g/kg, i.p.) and ventilated by an artificial respirator (Model 683; Harvard). At that time, overflowed air volume above the pressure of about 12 cm H2 O was measured by using a sensor (Model 7020; Ugo basile) and the value was used as an index of broncho-constriction. 0.3 mg/kg (5 ml/kg) of test compounds suspended in 5% gum Arabic was administered orally to Guinea-pigs fasted beforehand for 24 hr. After 2 hrs, U-46619 (4 μg/kg; Cayman) was administered through the cervical vein, and then maximal response was measured. Inhibitory rates compared to the reference group were calculated based on the response rate normalized by the complete closure as 100%.

Assay [5] has as its system broncho-constriction induced by leukotriene D4. The assay can be described thus: Inhibitory effect on broncho-constriction induced by leukotriene D4 (Konzett-Roessler method, oral). In kind it is in vivo, male Hartley guinea-pig. The method, then:
Airway resistance was evaluated according to the method of Konzett-Roessler[Naunyn-Schmiedberg's Arch. Exp. Path. Pharmak., Vol. 195, 71 (1940)]. After male Hartley guinea-pig fasted beforehand for 24 hr were anesthetized with urethane, overflowed air volume was measured under artificial ventilation as an index of broncho-constriction. 30 mg/kg (5 ml/kg) of test compounds suspended in 5% gum Arabic were administered orally to […]. Leukotriene D4 (1 μg/kg; ULTRA FINE) was administered through the cervical vein after 2 hr, and then values were measured at 2 min after the time when responses became maximum. Inhibitory rates compared to the control group were calculated based on the response rate normalized by the overflowed volume at complete closure as 100% broncho-constriction state. Indomethacin (2 mg/kg, i.v.) and propranolol (1 mg/kg, i.v.) were administered at 10 min and 5 min before the administration of leukotriene D4, respectively.

Turning to `O=C(O)CCCc1ccc(C(Cc2ccccc2)NS(=O)(=O)c2ccc(Cl)cc2)cc1` (stereo not shown) [Example 62, 4-[4-[1-(4-Chlorophenylsulfonylamino)-2-phenylethyl]phenyl]butyric Acid], the figures for the half-maximal inhibitory concentration (IC50) in assay [1] and in assay [2] were 50 nM and 4000 nM, respectively.
With `CC(NS(=O)(=O)c1ccc(Cl)cc1)c1ccc(CCCC(=O)O)cc1` (stereo not shown) [Example 63, 4-[4-[1-(4-Chlorophenylsulfonylamino)ethyl]phenyl]butyric Acid], in assay [2], the 50% inhibitory concentration (IC50) amounted to 2000 nM.
With `CC(C)C(NS(=O)(=O)c1ccc(Cl)cc1)c1ccc(CCCC(=O)O)cc1` (stereo not shown) [Example 69, 4-[4-[1-(4-Chlorophenylsulfonylamino)-2-methylpropyl]phenyl]butyric Acid], the IC50 in assay [1] was determined as 200 nM; in assay [2] it was 2000 nM.
The like results for `O=C(O)CCCc1ccc(C(NS(=O)(=O)c2ccc(Cl)cc2)C2CCCC2)cc1` (stereo not shown) [Example 73, 4-[4-[(4-Chlorophenylsulfonylamino)cyclopentylmethyl]phenyl]butyric Acid] were, in that order, 250 nM and 1600 nM.
Turning to `O=C(O)CCCc1ccc(C(NS(=O)(=O)c2ccc(Cl)cc2)C2CCCCC2)cc1` (stereo not shown) [Example 74, 4-[4-[(4-Chlorophenylsulfonylamino)cyclohexylmethyl]phenyl]butyric Acid], the antagonist dissociation constant (Kb) in assay [3] is 501 nM. Also, the concentration for half-maximal inhibition (IC50) in assay [1] is 320 nM; in assay [2] it was 3200 nM.
For `O=C(O)Cc1ccc(CCNS(=O)(=O)c2ccc(Cl)cc2)cc1` [Reference compound, reference compound], the Inhibition rate in assay [4] came out at 18%. In addition, the inhibition in vivo at 30 mg/kg in assay [5] (Cavia porcellus, po, 30 mg/kg orally, leukotriene D4 1 μg/kg after 2 hr, indomethacin and propranolol pretreatment, read-out: Inhibition rate) was ≤ 0%. Besides, the “inhibitory effect on broncho-constriction induced by leukotriene D4 (in words)” value in assay [5] (guinea pig, in vivo) is “no inhibitory effect”. In addition, in assay [3], the “leukotriene D4 antagonistic effect (in words)” value is “inactive” and the Kb is > 100000 nM. Moreover, the IC50 in assay [2] was found to be 40000 nM.
